This is an account of results in ChEMBL document CHEMBL3414432, “Discovery of N-benzoxazol-5-yl-pyrazole-4-carboxamides as nanomolar SQR inhibitors” (Eur J Med Chem, 2015).

What is called IC50 is the point on the concentration scale where inhibition reaches its midpoint. As usually defined, the inhibition is the relative decrease from the control value, in per cent. A higher inhibition goes with a strong effect. What is called Ki is the dissociation constant of the complex between target and ligand, obtained from inhibition or displacement.

Test [1] in a line: Inhibition of porcine heart SQR in SCR complex assessed as reduction in ubiquinol-cytochrome c reductase (complex 3) activity by measuring cytochrome c level using succinate and DCIP substrate by spectrophotometry. Also on record: species or system Sus scrofa.
Test [2] has as its target T1, Succinate-ubiquinone oxidoreductase (Sus scrofa, UniProt A5GZW8+D0VWV4).
T1 sequence (A5GZW8 whole entry): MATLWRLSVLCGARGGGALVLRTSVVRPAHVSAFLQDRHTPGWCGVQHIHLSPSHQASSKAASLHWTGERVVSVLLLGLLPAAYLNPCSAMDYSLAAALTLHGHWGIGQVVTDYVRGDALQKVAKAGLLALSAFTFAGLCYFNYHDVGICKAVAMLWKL
T1 sequence (D0VWV4 whole entry): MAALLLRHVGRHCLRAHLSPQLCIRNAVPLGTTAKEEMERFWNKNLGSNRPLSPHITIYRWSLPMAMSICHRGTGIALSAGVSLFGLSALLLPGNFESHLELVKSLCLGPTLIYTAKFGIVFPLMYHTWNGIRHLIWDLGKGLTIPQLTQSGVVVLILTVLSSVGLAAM
Kind of test: Inhibition of porcine heart SQR in SCR complex assessed as reduction in ubiquinol-cytochrome c reductase (complex 3) activity by measuring cytochrome c level using succinate and DCIP substrate at 23 degC by spectrophotometry. The class given is protein-complex assay.

Test [3] can be described thus: Inhibition of porcine heart SCR using succinate and cytochrome c substrate at 23 degC by spectrophotometry. Set-up: species or system Sus scrofa.
The species named for test [4] is Sus scrofa. Kind of test: Inhibition of porcine heart electron transport protein complex 3 in SCR complex at 10 uM using DBH2 and cytochrome c substrate by spectrophotometry.
Test [5] deals with Succinate-ubiquinone oxidoreductase (Sus scrofa) (UniProt A5GZW8+D0VWV4). Kind of test: Potency index, ratio of Ki for penthiopyrad to Ki for compound against porcine heart SQR in SCR complex. The class given is protein-complex assay.
A short description of test [6]: Non-competitive inhibition of porcine heart SCR with respect to cytochrome c substrate at 23 degC by double-reciprocal plot. Also on record: species or system Sus scrofa.
Test [7] is filed under the species Sus scrofa. Kind of test: Potency index, ratio of Ki for penthiopyrad to Ki for compound against porcine heart SCR.
Test [8] concerns the target T1, Succinate-ubiquinone oxidoreductase. Kind of test: Non-competitive inhibition of porcine heart SQR in SCR complex with respect to DCIP substrate at 23 degC by double-reciprocal plot. The class given is protein-complex assay.
The nature of test [9]: Inhibition of rat liver SQR.
Test [10] in a line: Inhibition of bovine heart SQR. Set-up: species or system Bos taurus.

Take `Cn1cc(C(=O)Nc2ccc3oc(SCc4ccc(Cl)cc4)nc3c2)c(C(F)(F)F)n1`: in [1], the IC50 turned out to be 111 nM.
For `Cn1cc(C(=O)Nc2ccc3oc(SCc4cccc(Cl)c4)nc3c2)c(C(F)(F)F)n1`, in [1], the IC50 was found to be 149 nM.
As for `Cn1cc(C(=O)Nc2ccc3oc(SCc4cccc(F)c4)nc3c2)c(C(F)F)n1`, the IC50 in test [1] came to 244 nM.
Still for that read-out and setting: as for `Cn1cc(C(=O)Nc2ccc3oc(SCc4ccc(C(F)(F)F)cc4)nc3c2)c(C(F)(F)F)n1`, the figure is 83 nM.
On to `Cn1cc(C(=O)Nc2ccc3oc(SCc4ccc(OC(F)(F)F)cc4)nc3c2)c(C(F)F)n1`, for which the IC50 amounted to 11 nM in [2], 38 nM in [3] and 38 nM in test [1]. The same compound showed an inhibition in [4] of 13%. Moreover, the Ratio Ki in test [5] and in test [7] was 30 in each case. For the same compound, the results for the Ki in [6] and in [8] were 43 nM and 11 nM, respectively.
`Cn1cc(C(=O)Nc2ccc3oc(SCc4ccc(OC(F)(F)F)cc4)nc3c2)c(C(F)(F)F)n1`: the IC50 in test [1] is 88 nM.
With `COc1ccc(CSc2nc3cc(NC(=O)c4cn(C)nc4C(F)F)ccc3o2)cc1`, in test [1], the IC50 amounted to 208 nM.
`CC(C)CC(C)c1sccc1NC(=O)c1cn(C)nc1C(F)(F)F` (configuration not stated) [PENTHIOPYRAD]: the IC50 was determined as 527 nM in [2], 1320 nM in test [3] and 1320 nM in test [1]. The same compound registered an inhibition in [4] below 10%. Besides, the Ki was 1390 nM in [6] and 327 nM in test [8].
With `Cc1ccc(CSc2nc3cc(NC(=O)c4cn(C)nc4C(F)F)ccc3o2)cc1`, the IC50 in [1] was 216 nM.
Regarding `COc1[nH]c(=O)c(C(=O)[C@@H](C)C[C@H](C)[C@@H](Cl)CCl)c(O)c1OC` [ATPENIN A5], the IC50 in test [9] came to 3.7 nM; in test [10], 3.6 nM.
On to `Cn1cc(C(=O)Nc2ccc3oc(SCc4cccc(Br)c4)nc3c2)c(C(F)(F)F)n1`, for which the IC50 in test [1] came to 119 nM.
On the same count and under the same terms, next, `COc1ccc(CSc2nc3cc(NC(=O)c4cn(C)nc4C(F)(F)F)ccc3o2)cc1`: 284 nM; `Cn1cc(C(=O)Nc2ccc3oc(SCc4ccc(F)cc4)nc3c2)c(C(F)F)n1`: 101 nM; `Cn1cc(C(=O)Nc2ccc3oc(SCc4cccc(Br)c4)nc3c2)c(C(F)F)n1`: 62 nM.
For `Cn1cc(C(=O)Nc2ccc3oc(SCc4ccc(C#N)cc4)nc3c2)c(C(F)F)n1`, the IC50 in test [1] turned out to be 397 nM.
In the case of `Cn1cc(C(=O)Nc2ccc3oc(SCc4ccc(F)cc4)nc3c2)c(C(F)(F)F)n1`, the IC50 in test [1] was 210 nM.
Regarding `Cn1cc(C(=O)Nc2ccc3oc(SCc4ccc(F)c(F)c4)nc3c2)c(C(F)(F)F)n1`, the IC50 in [1] was determined as 130 nM.
`Cc1ccc(CSc2nc3cc(NC(=O)c4cn(C)nc4C(F)(F)F)ccc3o2)cc1`: the IC50 in test [1] was 269 nM.
As for `Cn1cc(C(=O)Nc2ccc3oc(SCc4cccc(F)c4)nc3c2)c(C(F)(F)F)n1`, the IC50 in [1] worked out at 418 nM.
As to `Cn1cc(C(=O)Nc2ccc3oc(SCc4cccc(Cl)c4)nc3c2)c(C(F)F)n1`, in test [1], the IC50 was determined as 82 nM.
In the case of `Cn1cc(C(=O)Nc2ccc3oc(SCc4ccc(C#N)cc4)nc3c2)c(C(F)(F)F)n1`, in test [1], the IC50 came out at 562 nM.
Take `Cn1cc(C(=O)Nc2ccc3oc(SCc4ccc(C(F)(F)F)cc4)nc3c2)c(C(F)F)n1`: in test [1], the IC50 turned out to be 39 nM.
`Cn1cc(C(=O)Nc2ccc3oc(SCc4ccc(Cl)cc4)nc3c2)c(C(F)F)n1`: the IC50 in [1] was found to be 57 nM.
With `Cn1cc(C(=O)Nc2ccc3oc(SCc4ccc(F)c(F)c4)nc3c2)c(C(F)F)n1`, in test [1], the IC50 was determined as 100 nM.
